The series deals with HepG2 cells. Description: cell penetration, fluorescence and confocal microscopy; active vs. passive transport. In kind it is cell-based, human. The procedure:
Cell Culture and Treatment. HepG2 (expressing wild-type p53) and Huh7 (expressing mutant p53) cell lines were purchased from the American Type Culture Collection (ATCC) and cultured as monolayers in Dulbecco’s modified Eagle’s medium (DMEM) (Invitrogen) supplemented with 100 mM nonessential amino acid solution, 100 mM sodium pyruvate, 100 U/mL penicillin, 100 μg/mL streptomycin, and 10% heat inactivated fetal bovine serum (FBS) (all from Hyclone).
Cells were maintained at 37° C and 5% CO2 and were treated with media that contained 0.5%
FBS. Nutlin-3 (Sigma) was dissolved in 0.01% DMSO (Sigma). This concentration of DMSO did not affect the cell phenotype. Both nutlin-3 and spiroligomers were added into the medium for final concentrations of 2 µM, 5 µM, 10 µM and 20 µM for 24 hours. For the western blot experiments detailed below, the time length for incubation with bis-peptide was 17 hours.
Fluorescence and Confocal Microscopy. Fluorescence and confocal microscopy were applied to live and fixed cells. Cells were grown on glass chambers and fixed with ice-cold 95:5 ethanol/acetic acid for 10 minutes at -20 °C. Sections were washed with PBS and mounted in Vectashield aqueous mounting medium with DAPI (Vector laboratories). Fluorescent specimens were analyzed using an ECLIPSE Ti microscope (Nikon), lenses with hardened […]
(1 picture or pasted object on this page, not shown here) […]
filters (Nikon), and a Nikon DS-Fi1 camera, which was operated by NIS Elements computer software (Nikon). Confocal microscopy was performed with a Leica SP-1 microscope, with illumination at 488 nm and spectral detection. […]
Mathematical model described8 and MxPro software (Stratagene) were used to process PCR data. End-point PCR reactions were assayed with PCR Master Mix (Promega). Samples were amplified in 34 cycles; each cycle consisted of 30 sec of denaturation at 95 °C, 30 sec of annealing at 60 °C, and 30 sec of elongation at 72 °C. After 34 cycles, samples were subjected to final elongation for 5 minutes at 72 °C. […]
fluorescence in the images.

As for `CC(C)CN1C(=O)[C@@H]2C[C@@]3(CN2C(=O)[C@@]12C[C@H]1C(=O)N(Cc4ccc(Cl)c(Cl)c4)[C@]4(C[C@@H]5C(=O)N[C@@H](CCc6ccccc6)C(=O)N5C4)C(=O)N1C2)NC(=O)[C@@H](CCCCNC(=S)Nc1ccc2c(c1)C(=O)OC21c2ccc(O)cc2Oc2cc(O)ccc21)NC3=O` [Compound 1], the “mechanism of cell penetration” value is given as “passive diffusion”. Also, the “uptake of fluorescence with active transport inhibited” value (HepG2, 37°C, 60 min pre-treatment with 10 mM sodium azide and 50 mM deoxy-D-glucose, 5 µM, 3.75 hours) is “indistinguishable from control cells treated with 1 at 37 °C”.

Values taken from paper PMC3475717, “A Spiroligomer α-Helix Mimic That Binds HDM2, Penetrates Human Cells and Stabilizes HDM2 in Cell Culture” (PLoS ONE, 2012).
